The target of assay [1] is Phosphatidylinositol 4-phosphate 3-kinase C2 domain-containing subunit beta (Homo sapiens) (UniProt O00750). Put plainly: Selectivity interaction (ProQinase) EUB0000171b PIK3C2B.
Assay [2] deals with Insulin-like growth factor 1 receptor (Homo sapiens, UniProt P08069). Particulars: at 3 µM.
Assay [3] addresses T1, Mitogen-activated protein kinase kinase kinase kinase 2 (Homo sapiens) (UniProt Q12851).
T1 sequence (whole entry): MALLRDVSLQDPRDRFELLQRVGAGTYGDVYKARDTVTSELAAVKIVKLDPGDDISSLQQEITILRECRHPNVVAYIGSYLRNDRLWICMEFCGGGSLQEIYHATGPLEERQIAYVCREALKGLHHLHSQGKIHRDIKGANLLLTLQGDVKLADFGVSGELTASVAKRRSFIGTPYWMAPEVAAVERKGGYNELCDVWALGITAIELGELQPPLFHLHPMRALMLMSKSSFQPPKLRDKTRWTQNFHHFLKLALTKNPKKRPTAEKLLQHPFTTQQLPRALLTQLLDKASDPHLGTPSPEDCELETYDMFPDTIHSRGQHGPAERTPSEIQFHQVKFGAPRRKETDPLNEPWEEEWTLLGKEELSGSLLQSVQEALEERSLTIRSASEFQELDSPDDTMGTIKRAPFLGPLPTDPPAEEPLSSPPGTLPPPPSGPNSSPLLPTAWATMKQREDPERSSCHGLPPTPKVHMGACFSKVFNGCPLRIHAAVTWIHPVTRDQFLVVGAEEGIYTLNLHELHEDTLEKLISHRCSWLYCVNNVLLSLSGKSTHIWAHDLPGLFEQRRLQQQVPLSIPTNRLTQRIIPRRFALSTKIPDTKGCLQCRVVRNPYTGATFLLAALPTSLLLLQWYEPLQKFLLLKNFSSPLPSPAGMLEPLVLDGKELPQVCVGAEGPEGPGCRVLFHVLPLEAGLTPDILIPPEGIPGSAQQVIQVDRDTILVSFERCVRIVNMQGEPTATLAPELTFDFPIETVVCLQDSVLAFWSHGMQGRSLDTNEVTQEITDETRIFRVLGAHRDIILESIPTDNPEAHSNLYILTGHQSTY
Kind of assay: Selectivity interaction (KinomeScan (DiscoverX)) EUB0000655a MAP4K2. Particulars: at 10 µM.

Assay [4] addresses Histone-lysine N-methyltransferase 2C (Homo sapiens) (UniProt Q8NEZ4). Put plainly: Selectivity interaction (Methyltransferase screen (radiometric assays, panel of 8 PRMTs, 21 protein lysine methyltransferases, 3 DNA methyltransferases, and one RNA methyltransferase)) EUB0000271b MLL3.
Assay [5] has as its target MAP kinase-activated protein kinase 2 (Homo sapiens, UniProt P49137). Kind of assay: Selectivity interaction (KinomeScan (DiscoverX)) EUB0000045b MAPKAPK2.
Assay [6] has as its target Interleukin-1 receptor-associated kinase 1 (Homo sapiens) (UniProt P51617). Kind of assay: Selectivity interaction (KinomeScan (DiscoverX)) EUB0000045b IRAK1.
In assay [7] the target is Mitogen-activated protein kinase 7 (Homo sapiens) (UniProt Q13164). Put plainly: Selectivity interaction (KinomeScan (DiscoverX)) EUB0000607a MAPK7. The following applies: at 10 µM.
Assay [8] addresses Casein kinase I isoform alpha (Homo sapiens, UniProt P48729). Kind of assay: Selectivity interaction (ActivX KiNativ screen (kinase selectivity in THP-1 cell lysates)) EUB0000639a CSNK1A1. The following applies: lysate, at 0.01 µM. It counts as subcellular.
Assay [9] concerns the target T2, Dual specificity mitogen-activated protein kinase kinase 5 (Homo sapiens) (UniProt Q13163).
T2 sequence (whole entry): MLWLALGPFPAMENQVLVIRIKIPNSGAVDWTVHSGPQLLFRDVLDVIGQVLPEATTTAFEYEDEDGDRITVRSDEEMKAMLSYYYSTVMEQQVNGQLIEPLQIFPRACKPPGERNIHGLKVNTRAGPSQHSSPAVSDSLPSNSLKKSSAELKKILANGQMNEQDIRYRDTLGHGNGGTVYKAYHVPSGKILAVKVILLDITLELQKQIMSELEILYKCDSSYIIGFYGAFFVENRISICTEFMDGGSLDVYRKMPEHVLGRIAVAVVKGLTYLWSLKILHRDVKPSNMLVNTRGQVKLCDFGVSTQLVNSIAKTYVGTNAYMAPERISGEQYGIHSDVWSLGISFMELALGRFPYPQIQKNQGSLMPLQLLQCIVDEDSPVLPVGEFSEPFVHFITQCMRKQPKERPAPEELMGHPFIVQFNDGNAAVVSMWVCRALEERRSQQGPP
Put plainly: Selectivity interaction (ActivX KiNativ screen (kinase selectivity in THP-1 cell lysates)) EUB0000639a MAP2K5. The following applies: lysate. The class given is subcellular.

Assay [10] deals with Mitogen-activated protein kinase 7 (Homo sapiens) (UniProt Q13164). Kind of assay: Selectivity interaction (KinomeScan (DiscoverX)) EUB0000229b MAPK7. The following applies: at 10 µM.
For assay [11], the target named is LIM domain kinase 2 (Homo sapiens) (UniProt P53671). The following applies: at 10 µM.
Assay [12] relates to Epidermal growth factor receptor (Homo sapiens), P00533 [UNDEFINED MUTATION]. Kind of assay: Selectivity interaction (KinomeScan (DiscoverX)) EUB0001619a EGFR. Particulars: at 1 µM.
The target of assay [13] is Tyrosine-protein kinase Lck (Homo sapiens, UniProt P06239). Put plainly: Selectivity interaction (Kinase panel (literature)) EUB0001199aCl LCK. The following applies: at 1 µM.
Assay [14] has as its target Cyclin-dependent kinase 16 (Homo sapiens) (UniProt Q00536). Put plainly: Selectivity interaction (Kinase panel (KiNativ target engagement assay in Jurkat cells)) EUB0001635a CDK16. It counts as cell-based. Particulars: Selectivity number of off-targets 0.0, Selectivity number of targets 233.0, Source Knowledge https://www.sciencedirect.com/science/article/pii/S2451945619300674?via%3Dihub, at 1 µM.

The target in assay [15] is T3, Serine/threonine-protein kinase 3 (Homo sapiens) (UniProt Q13188).
T3 sequence (whole entry): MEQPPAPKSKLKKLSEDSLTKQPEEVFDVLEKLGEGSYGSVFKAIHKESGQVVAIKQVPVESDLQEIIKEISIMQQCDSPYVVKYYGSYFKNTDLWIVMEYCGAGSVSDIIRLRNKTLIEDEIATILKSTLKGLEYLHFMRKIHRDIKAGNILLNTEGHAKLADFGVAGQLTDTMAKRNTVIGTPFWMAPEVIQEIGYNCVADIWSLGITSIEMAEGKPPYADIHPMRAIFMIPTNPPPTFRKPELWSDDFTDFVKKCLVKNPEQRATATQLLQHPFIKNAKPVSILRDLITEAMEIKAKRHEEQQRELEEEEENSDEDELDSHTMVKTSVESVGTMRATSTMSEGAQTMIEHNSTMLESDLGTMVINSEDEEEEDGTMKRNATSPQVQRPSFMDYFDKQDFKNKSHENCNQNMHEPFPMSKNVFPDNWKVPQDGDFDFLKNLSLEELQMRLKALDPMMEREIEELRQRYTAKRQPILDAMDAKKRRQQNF
Kind of assay: Selectivity interaction (KinomeScan (DiscoverX)) EUB0000618a STK3. Particulars: at 10 µM.

Molecules are shown by their SMILES.

Sequence of Phosphatidylinositol 4-phosphate 3-kinase C2 domain-containing subunit beta (Homo sapiens) (O00750 whole entry, the tested form may be a part): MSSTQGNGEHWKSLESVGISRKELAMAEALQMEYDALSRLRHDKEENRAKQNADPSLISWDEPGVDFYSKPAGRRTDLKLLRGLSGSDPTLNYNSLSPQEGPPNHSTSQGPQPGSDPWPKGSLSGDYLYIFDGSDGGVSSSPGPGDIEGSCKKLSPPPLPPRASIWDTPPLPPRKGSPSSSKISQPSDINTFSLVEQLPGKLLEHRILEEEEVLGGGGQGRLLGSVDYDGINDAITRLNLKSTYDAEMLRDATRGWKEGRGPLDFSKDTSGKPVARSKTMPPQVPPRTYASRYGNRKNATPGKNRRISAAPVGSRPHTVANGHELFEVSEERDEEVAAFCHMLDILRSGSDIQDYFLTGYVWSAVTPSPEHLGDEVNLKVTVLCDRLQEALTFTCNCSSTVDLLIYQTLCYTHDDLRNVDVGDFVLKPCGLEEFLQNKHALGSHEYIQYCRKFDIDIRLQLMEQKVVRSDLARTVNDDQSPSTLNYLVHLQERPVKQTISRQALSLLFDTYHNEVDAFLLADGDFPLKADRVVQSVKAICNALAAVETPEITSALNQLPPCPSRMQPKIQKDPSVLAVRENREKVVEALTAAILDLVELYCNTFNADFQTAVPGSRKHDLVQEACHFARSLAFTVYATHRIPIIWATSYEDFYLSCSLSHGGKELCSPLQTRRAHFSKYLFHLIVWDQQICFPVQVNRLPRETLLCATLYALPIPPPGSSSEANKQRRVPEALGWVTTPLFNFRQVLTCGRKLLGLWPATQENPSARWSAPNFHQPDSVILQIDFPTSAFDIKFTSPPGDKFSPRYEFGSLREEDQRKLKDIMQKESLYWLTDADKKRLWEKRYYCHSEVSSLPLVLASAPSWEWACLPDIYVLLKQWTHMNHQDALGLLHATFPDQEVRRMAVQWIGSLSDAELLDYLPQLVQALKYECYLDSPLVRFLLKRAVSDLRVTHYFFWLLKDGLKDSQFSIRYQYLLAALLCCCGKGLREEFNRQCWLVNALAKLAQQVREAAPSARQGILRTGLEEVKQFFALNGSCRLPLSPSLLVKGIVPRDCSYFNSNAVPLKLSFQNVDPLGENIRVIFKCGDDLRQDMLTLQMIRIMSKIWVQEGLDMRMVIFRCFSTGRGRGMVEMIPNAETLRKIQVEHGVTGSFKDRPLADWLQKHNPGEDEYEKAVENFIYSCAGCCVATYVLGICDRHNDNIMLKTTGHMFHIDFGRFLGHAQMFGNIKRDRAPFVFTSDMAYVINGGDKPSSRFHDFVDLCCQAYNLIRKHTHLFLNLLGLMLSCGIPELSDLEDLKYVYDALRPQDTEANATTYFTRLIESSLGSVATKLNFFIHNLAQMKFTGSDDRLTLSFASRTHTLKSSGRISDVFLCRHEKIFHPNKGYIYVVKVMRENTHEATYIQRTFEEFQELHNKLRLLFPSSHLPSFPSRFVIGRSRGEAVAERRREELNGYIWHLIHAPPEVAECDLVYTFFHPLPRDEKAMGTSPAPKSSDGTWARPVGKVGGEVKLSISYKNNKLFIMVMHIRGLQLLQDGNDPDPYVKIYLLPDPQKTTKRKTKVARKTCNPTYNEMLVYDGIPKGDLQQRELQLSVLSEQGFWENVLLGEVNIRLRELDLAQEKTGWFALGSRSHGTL
Sequence of MAP kinase-activated protein kinase 2 (P49137 whole entry, looked up): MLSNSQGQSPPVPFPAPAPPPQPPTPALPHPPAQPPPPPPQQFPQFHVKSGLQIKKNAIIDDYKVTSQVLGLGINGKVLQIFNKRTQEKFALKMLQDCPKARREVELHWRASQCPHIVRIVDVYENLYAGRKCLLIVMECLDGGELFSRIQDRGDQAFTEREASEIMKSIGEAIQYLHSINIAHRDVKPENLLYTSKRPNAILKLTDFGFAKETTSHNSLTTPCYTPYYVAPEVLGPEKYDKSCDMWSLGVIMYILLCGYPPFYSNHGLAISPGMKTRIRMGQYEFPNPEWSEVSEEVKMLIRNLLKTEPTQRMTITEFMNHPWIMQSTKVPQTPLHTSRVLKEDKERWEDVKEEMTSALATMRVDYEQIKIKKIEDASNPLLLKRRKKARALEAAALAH
Sequence of Interleukin-1 receptor-associated kinase 1 (Homo sapiens) (P51617 whole entry, looked up): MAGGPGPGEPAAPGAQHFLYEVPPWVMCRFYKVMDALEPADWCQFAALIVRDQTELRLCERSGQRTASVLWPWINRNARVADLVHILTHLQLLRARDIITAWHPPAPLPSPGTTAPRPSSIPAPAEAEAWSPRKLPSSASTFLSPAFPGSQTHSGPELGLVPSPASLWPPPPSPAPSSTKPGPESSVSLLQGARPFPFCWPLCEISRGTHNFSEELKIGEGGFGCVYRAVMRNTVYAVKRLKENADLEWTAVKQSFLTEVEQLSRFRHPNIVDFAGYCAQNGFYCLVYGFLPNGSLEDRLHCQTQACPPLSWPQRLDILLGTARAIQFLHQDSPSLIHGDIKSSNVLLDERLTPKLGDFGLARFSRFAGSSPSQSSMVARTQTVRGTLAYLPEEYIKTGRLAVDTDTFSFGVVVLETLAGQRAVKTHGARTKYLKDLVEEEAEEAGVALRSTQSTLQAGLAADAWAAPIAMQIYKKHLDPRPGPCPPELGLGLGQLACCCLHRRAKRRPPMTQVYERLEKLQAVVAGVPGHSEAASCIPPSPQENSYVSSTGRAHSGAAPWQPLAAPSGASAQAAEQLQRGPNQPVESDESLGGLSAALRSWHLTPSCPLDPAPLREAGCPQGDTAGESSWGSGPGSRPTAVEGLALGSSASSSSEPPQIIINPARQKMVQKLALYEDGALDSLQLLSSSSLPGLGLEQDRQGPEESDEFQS
Sequence of Mitogen-activated protein kinase 7 (Homo sapiens) (Q13164 2-816 limits assumed): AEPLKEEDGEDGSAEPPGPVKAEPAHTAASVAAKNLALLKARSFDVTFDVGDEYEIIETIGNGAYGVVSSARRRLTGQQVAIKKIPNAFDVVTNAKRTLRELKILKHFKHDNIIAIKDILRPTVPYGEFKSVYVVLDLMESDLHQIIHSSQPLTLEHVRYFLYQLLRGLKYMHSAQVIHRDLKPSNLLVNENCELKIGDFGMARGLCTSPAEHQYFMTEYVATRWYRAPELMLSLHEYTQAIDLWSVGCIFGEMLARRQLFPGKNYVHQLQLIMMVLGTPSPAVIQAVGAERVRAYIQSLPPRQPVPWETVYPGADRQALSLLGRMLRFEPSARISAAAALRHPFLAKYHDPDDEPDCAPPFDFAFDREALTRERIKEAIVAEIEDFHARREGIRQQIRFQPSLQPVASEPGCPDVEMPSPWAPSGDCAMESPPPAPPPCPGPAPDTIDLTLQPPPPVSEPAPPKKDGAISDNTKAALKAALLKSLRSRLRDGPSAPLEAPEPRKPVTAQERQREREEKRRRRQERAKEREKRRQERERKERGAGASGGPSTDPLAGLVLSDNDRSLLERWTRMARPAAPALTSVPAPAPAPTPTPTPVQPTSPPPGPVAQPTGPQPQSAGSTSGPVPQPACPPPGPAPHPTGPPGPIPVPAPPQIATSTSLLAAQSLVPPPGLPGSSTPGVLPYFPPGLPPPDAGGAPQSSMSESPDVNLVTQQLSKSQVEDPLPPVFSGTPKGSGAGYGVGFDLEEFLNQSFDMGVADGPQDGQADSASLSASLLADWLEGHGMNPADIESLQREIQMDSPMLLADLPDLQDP
Sequence of Casein kinase I isoform alpha (P48729 2-337 limits assumed): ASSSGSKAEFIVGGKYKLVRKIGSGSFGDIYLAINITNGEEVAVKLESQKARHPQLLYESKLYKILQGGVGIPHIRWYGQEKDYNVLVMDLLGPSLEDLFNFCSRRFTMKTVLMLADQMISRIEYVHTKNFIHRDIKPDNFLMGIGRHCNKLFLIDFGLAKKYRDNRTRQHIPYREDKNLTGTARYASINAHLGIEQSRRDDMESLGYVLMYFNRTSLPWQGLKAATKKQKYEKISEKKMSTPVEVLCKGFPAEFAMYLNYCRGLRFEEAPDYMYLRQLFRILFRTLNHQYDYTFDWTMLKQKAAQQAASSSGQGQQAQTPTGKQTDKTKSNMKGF
Sequence of LIM domain kinase 2 (Homo sapiens) (P53671 whole entry, looked up, the tested form may be a part): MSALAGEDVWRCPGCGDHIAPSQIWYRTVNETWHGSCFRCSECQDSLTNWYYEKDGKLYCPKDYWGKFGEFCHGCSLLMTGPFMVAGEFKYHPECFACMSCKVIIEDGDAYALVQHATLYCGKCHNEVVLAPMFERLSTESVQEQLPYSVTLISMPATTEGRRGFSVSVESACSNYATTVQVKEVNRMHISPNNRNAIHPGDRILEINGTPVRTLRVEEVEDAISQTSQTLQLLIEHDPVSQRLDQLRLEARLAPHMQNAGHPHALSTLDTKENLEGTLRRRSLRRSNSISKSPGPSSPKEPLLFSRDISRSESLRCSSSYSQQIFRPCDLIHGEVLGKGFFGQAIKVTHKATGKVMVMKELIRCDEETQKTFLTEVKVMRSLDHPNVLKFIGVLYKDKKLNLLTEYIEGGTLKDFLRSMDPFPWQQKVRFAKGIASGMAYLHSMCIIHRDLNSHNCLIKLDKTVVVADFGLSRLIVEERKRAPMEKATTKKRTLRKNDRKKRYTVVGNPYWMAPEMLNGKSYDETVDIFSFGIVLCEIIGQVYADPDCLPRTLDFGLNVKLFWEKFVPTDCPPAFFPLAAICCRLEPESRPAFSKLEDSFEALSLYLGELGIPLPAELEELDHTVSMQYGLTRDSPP
Sequence of Tyrosine-protein kinase Lck (P06239 2-509 limits assumed): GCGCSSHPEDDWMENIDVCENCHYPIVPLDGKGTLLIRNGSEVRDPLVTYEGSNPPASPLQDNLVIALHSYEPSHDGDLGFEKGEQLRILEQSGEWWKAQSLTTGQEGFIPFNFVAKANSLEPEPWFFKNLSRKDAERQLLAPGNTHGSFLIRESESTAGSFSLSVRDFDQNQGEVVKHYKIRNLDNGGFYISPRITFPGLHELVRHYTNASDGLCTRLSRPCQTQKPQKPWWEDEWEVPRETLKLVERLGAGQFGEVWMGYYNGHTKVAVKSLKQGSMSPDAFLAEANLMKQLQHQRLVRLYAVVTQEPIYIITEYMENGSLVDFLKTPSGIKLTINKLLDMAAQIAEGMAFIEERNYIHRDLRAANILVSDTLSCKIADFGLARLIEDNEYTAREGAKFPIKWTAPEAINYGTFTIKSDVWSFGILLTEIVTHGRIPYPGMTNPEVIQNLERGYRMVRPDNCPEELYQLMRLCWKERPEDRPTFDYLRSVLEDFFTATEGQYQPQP

On to `C=CC(=O)Nc1cccc(C(=O)Nc2ccc(Nc3cc(-c4[nH]c(SC)nc4C)ccn3)cc2)c1`, for which the figures for the % of control in assay [1] (at 1 µM) and in assay [1] (at 5 µM) were 132% and 133%, respectively.

For the compound `CCc1cc(Nc2nccc(-c3c(-c4ccc(OC)c(C(=O)Nc5c(F)cccc5F)c4)nc4ccccn34)n2)c(OC)cc1N1CCC(N2CCN(S(C)(=O)=O)CC2)CC1`, in [2], the % of inhibition was 100%. In [3], `CN(C)CCOc1ccc(-c2nc(-c3ccncc3)c(-c3ccc4c(c3)CC/C4=N\O)[nH]2)cc1` yielded a % of control of 74%.

Regarding `Cc1cc(C)cc([C@@H]2c3cc(C)ccc3NC(=O)CN2C(=O)c2ccc(Br)s2)c1`, the % of activity in assay [4] (at 1 µM) was determined as 104%; in assay [4] (at 10 µM) it was 97%.

`C=CC(=O)Nc1cc(-n2c(=O)ccc3cnc4ccc(-c5ccc(NS(C)(=O)=O)cc5)cc4c32)ccc1C`: the % of control in assay [5] (at 1 µM) amounted to 100%; in assay [5] (at 10 µM) it was 100%; in assay [6] (at 1 µM), 72%; in assay [6] (at 10 µM), 60%. In assay [7], `CNC(=O)Nc1ccc(-c2nc(N3CC4CCC(C3)O4)c3cnn(C4CCC5(CC4)OCCO5)c3n2)cc1` gave a % of control of 100%. Turning to `CC[C@@H]1[C@H](F)C(=O)N[C@@H]1COc1nccc2cc(C(N)=O)c(OC)cc12` [ZIMLOVISERTIB], the % of inhibition in assay [8] was 2.1%; in [9] (at 0.01 µM), 4.3%; in [9] (at 0.04 µM) it was -11.1%; in [9] (at 0.2 µM), -18.3%; in assay [9] (at 1 µM) it was -7.3%; in assay [9] (at 5 µM), -18.8%.

`COc1cc(N(C)c2ccnc3ccc(C(F)(F)F)cc23)cc(OC)c1OC` yielded a % binding in [10] of 87%. `COCC(=O)NC/C=C/c1ccc2ncnc(Nc3ccc(Oc4ccc(C)nc4)c(C)c3)c2c1` [CP-724714] displayed a % of control in assay [11] of 100%. `N#Cc1cccc(-c2c[nH]c3ncnc(N4CCOCC4)c23)c1` displayed a % of control in assay [12] of 79%. Take `CN1Cc2nccc(-c3cn(C)nc3-c3ccc(F)cc3)c2C1=O`: the % of inhibition in assay [13] worked out at 3%. With `C=CC(=O)Nc1ccc(C(=O)Nc2[nH]nc3c2CN(C(=O)N[C@H](CN(C)C)c2ccccc2)C3(C)C)cc1`, the % of engagement in assay [14] worked out at 3.1%. In the case of `O[C@H]1CC[C@H](Nc2ncc3nc(Nc4c(F)cc(F)cc4F)n([C@H]4CCOC4)c3n2)CC1`, in [15], the % of control turned out to be 73%.

(Values after ChEMBL document CHEMBL5465560, “Selectivity Literature for EUbOPEN Chemogenomic Library” (2024).)
